Several values for one entry are separate records, joined by “and”; a condition that tells them apart may be missing. Equal entries are not always repeated.
Columns and labels:
[1] = system: chick chorioallantoic membrane (CAM); assay: Chick chorioallantoic membrane (CAM) assay, CAM area
Experimental: The chick chorioallantoic membrane (CAM) assay is perhaps the most widely used assay for screening anti-angiogenic or growth inhibitory compounds (see, e.g. Ribatti et al., Int. J. Dev. Biol. 40:1189-1197 (1996)). Cell proliferation and angiogenesis were evaluated by measuring CAM area and BrdU labeling using the CAM assay as modified by Melkonian et al., J. Exp. Zool. (2001), in review. Fertilized chicken eggs were purchased from Hy-Line International (Lakeview, CA), then incubated at 37° C. at 85-90% relative humidity throughout the experiment. Experiments were done to evaluate cell proliferation, angiogenesis, and vascularization in CAMs between days 5 and 6 after fertilization. Albumin (2.5-3.0 cc) was removed on the fourth day after fertilization to drop the embryo away from the shell. Windows were then made in shells, and sealed with transparent tape to allow subsequent access to the CAM for experimental treatment. 200 μl of either EBSS-H or different concentrations of pure chemicals were added to the surface of each CAM at 10 AM on the fifth day after fertilization. A sham control group in which the window was opened and resealed was also included in each experiment. In all cases, the following five concentrations of test reagents were used, 5×10^−3 M, 5×10^−5 M, 5×10^−7M, 5×10^−9 M and 5×10^−11M. For 2-ethylpyridine and 3-ethylpyridine additional concentrations of 5×10^−12M, 5×10^−13M, 5×10^−14 M and 5×10^−15 M were used. For nicotine and nornicotine, concentrations of 5×10^−4 M, 5×10^−6 M, 5×10^−8 M and 5×10^−10 M were also used. Development was terminated at 10 AM on the sixth day after fertilization by fixing the embryo and the CAM with 3% glutaraldehyde in 0.1M cacodylate buffer (pH 7.4) for 2 hours at room temperature. A small volume of fixative was also injected under the CAM. The CAMs were later dissected from eggs, post-fixed in the same fixative for 24 hours at room temperature, then thoroughly rinsed in PBS.
At least 6 CAMs were used in each control and experimental group. Parameters which measure aspects of cell proliferation, angiogenesis, and vacularization were quantified for each CAM. These parameters include: (1) for cell proliferation—CAM area, BrdU labeling of nuclei; (2) for angiogenesis—blood vessel pattern, blood vessel area, blood vessel diameter, and blood vessel branching; (3) for vascularization—density of angiogenic clusters. The area of each CAM was measured by placing the CAMs in PBS in a Petri dish under a Wild-M5A dissecting microscope (Max ERB instrument Co., Burbank, CA), then measuring the longest and shortest length of each CAM with a ruler to the precision of 0.5 mm. The data were recorded into Excel spreadsheet. CAM area was calculated using the formula:
where A=longest length, B=longest width, π=3.14.
Means and standard deviations were then calculated for each control and treatment group. The treated group means were used to compare with control means to determine the effect of each chemical on CAM growth.
On the fifth day after fertilization, either EBSS-H or different concentrations of test chemicals were added to each CAM. A sham group in which windows were opened and resealed without adding any solution was also included to determine if the vehicle EBSS-H had any effect on CAM area. Development was terminated 24 hours later, and CAMs were measured as described in Materials and Methods.

[2] = system: hamster oviduct explants (infundibulum); assay: Oocyte pickup rate (OPR) assay; assay type: cell-based, golden hamsters (Mesocricetus auratus)
Experimental: Hamsters were injected with 25 I.U. of human chorionic gonadotropin (hCG) on the evening of Day 4 of their estrous cycle. On the day of the experiment, approximately 12 hours after the injection of hCG, hamsters were sacrificed using CO2, and oviducts and ovaries were removed. During dissection the oviduct and ovary were separated. Ovaries were isolated in EBSS-HA and expanded follicles were poked with a dissecting needle to release the oocyte cumulus complexes (OCCs). Oocyte cumulus complexes were transferred to a fresh Petri dish and placed in EBSS-HA. The infundibulum was cut from the oviduct leaving part of the ampulla attached to function as a handle. […]
Oocyte cumulus complex pick-up rate was measured using hamster oviduct explants in an in vitro assay (Huang et al., 1997, supra; Knoll et al., 1998, supra; Talbot et al., 1998, supra). […] An oocyte cumulus complex was placed at the base of the infundibulum and the length of time needed for the complex to traverse a defined path to the ostium was recorded. […] Then the test smoke solution or chemical was added to the perfusion chamber and allowed to incubate for five minutes after which pickup-rate was measured again. […] Oocyte pickup-rate was measured again and this rate was recorded as the “recovery” measurement. […]

[3] = system: hamster oviduct explants (infundibulum); assay: Ciliary beat frequency assay; assay type: cell-based, golden hamsters (Mesocricetus auratus)
Experimental: Ciliary beat frequency was measured using hamster oviduct explants in an in vitro assay (Knoll et al., 1998, supra; Talbot et al., 1998, supra). Perfusion chambers containing infundibula were placed on a Wild stereoscopic microscope (model BD-HF) and viewed at 50×. A video image was sent from the microscope to a Dell computer using a Hitachi camera and recorded using a VCR onto a Super VHS videotape. To measure cilia beat frequency the videotape was played back frame-by-frame. The VCR recorded 15 frames per second. Each frame represented a fraction of a cycle; the completion of a cycle was equivalent to one beat. Number of frames per cycle (or frames per beat) were measured and then converted into beats per second. Ten measurements were made for each infundibulum for each treatment group. Recordings were made for 40-60 seconds per region, which ensured an adequate amount of data for analysis.
For the ciliary beat frequency, oocyte pickup rate, and infundibular muscle contraction graphs, purified 3-ethylpyridine was purchased and dissolved in EBSS. A hamster infundibulum was exposed to a dose range of 9.33 e-7 to 9.33 e-4 mM (four dose groups total) for five minutes and oocyte pickup rate, ciliary beat frequency, and infundibular contraction were measured. […]

hamster infundibula = assay: Infundibular muscle contraction assay; assay type: cell-based, golden hamsters (Mesocricetus auratus)
Source text: The infundibular muscle contraction assay was developed after observing consistent infundibular contractions that slowed or ceased after treatment with mainstream smoke solutions. Perfusion chambers containing infundibula were placed on a Wild stereoscopic microscope (model BD-HF) and viewed at 50×. A video image was sent from the microscope to a Dell computer using a Hitachi camera and the infundibular contractions could be observed and measured on the computer monitor. As the infundibulum contracted, the image shown on the monitor moved a measurable distance. This distance was measured during each contraction by placing a ruler against the computer monitor. These values (in centimeters) were then converted to actual distance by capturing an image of a ruler under the microscope and converting the measured values to micrometers. Frequency was also measured by observing the contracting infundibula on the computer monitor. The number of times the infundibulum contracted per minute was recorded. Each parameter was measured four to six times per infundibulum per treatment group.
For the ciliary beat frequency, oocyte pickup rate, and infundibular muscle contraction graphs, purified 3-ethylpyridine was purchased and dissolved in EBSS. […]

[4] = CAM area, day 5-6 CAMs, 24 hours
[5] = five minutes, single infundibulum

CCc1cccnc1 [3-ethylpyridine]
lowest effective dose lower than that of the single pyridine ring ([1]; CAM area): 10 million
LOAEL [1, 4]: 5.36e-10 mg/mL
LOAEL (Molar) [1, 4]: 5 pM
NOAEL (Molar) [1, 4]: 0.5 pM
minimal effective concentration ([1]; Gallus gallus, 24 h, read-out: lowest effective dose on CAM area): 5e-06 µM and 5.4e-07 µg/mL
concentration at which oocyte pickup rate was significantly inhibited [2, 5]: 9.33 e-7 mM
reversibility of effect on OPR after the recovery period ([2]; recovery period): partially reversible
concentration at which ciliary beat frequency was significantly inhibited [3, 5]: 9.33 e-7 mM
CBF during the recovery period ([3]; recovery period): continued to decrease
concentration at which infundibular muscle contraction rate was significantly inhibited (hamster infundibula; [5]): 9.33 e-7 mM
reversibility of effect on contraction rate after the recovery period (hamster infundibula; recovery period): partially reversible

Source: patent US20030064989A1, “Inhibitors of cell proliferation, angiogenesis, fertility, and muscle contraction” (priority 2001, published 2003)
